# Reference: patent publication US11026963B2, “Senolytic compositions and uses thereof” (Rubedo Life Sciences, Inc., priority 2018, dated 2021)
# Test system: Mouse embryonic fibroblast cells (MEFs)
# Assay: Viability of proliferating or senescent mouse embryonic fibroblasts (DAPI/PI staining)
# Type: cell-based
# Conditions: doxorubicin-induced senescent MEFs, 4 days, FIG. 1B
# Method: Mouse embryonic fibroblast cells were incubated with 300 nM doxorubicin for 24 hrs to induce senescence. Cells were washed and after incubation in media for 7 days, senescence was confirmed by staining for SA-β-Gal (Itahana et al., Methods Mol. Biol. 371 (2007) 21-31) and lack of incorporation of 5-ethynyl-2′-deoxyuridine (EdU) (see Yu et al., J. Immunol. Methods 350 (2009) 29-35).
# Proliferating or senescent MEFs were treated with increasing concentrations of either FURGal (101) or 5-fluorouridine (FUR) (102) for 4 days. Cells were washed and stained with 4′,6-diamidino-2-phenylindole (DAPI) and propidium iodide (PI) and the fraction of viable cells was assessed from the ratio of PI-positive nuclei over PI-negative nuclei.
row,Compound,toxicity towards senescent MEFs
1,"O=c1[nH]c(=O)n([C@@H]2O[C@H](CO)[C@@H](O)[C@H]2O)cc1F [(102), 5-fluorouridine, reference compound]",equitoxic

# Same assay, conditions: proliferating MEFs, 4 days, increasing concentrations (as high as 4 mM), FIG. 1A
row,Compound,cell viability / toxicity towards proliferating cells
1,"O=c1[nH]c(=O)n([C@@H]2O[C@H](CO)[C@@H](O)[C@H]2O)cc1F [(102), 5-fluorouridine, reference compound]",dramatically reduces cell viability

# Test system: senescent C57BL/6 mouse hepatocytes
# Assay: Effect of compound (113) on doxorubicin-induced senescent hepatocytes after in vivo administration
# Conditions: doxorubicin 20 mg/kg i.p.; 2×20 mg/kg i.p. 4 and 6 days later; livers after additional 2 days; FIG. 4C
# Method: Two groups of C57BL/6 mice (N=9/group) were injected intraperitoneally with doxorubicin (20 mg/kg) to induce hepatocellular senescence. 4 and 6 days later groups were injected i.p. with PBS or compound (113) (aka RBO-013) (2×20 mg/kg). A third group of animals served as controls. After an additional 2 days livers were removed and sectioned (30 μm) before staining for SA-β-Gal as previously described (FIGS. 4A and 4B). […] This senolytic effect was also corroborated by using quantitative PCR to detect mRNA levels of Cdkn2a (p16^INK4a) and IL-6 (N.B. Cdkn2a expression was exclusively detected in animals that received doxorubicin). Expression levels were reported relative to Actb as the reference gene.
row,Compound,senescent hepatocytes (as visualized by SA-β-Gal staining)
1,"CC(=O)OC[C@H]1O[C@@H](ONC(=O)/C=C/c2ccc(CNCCc3c(C)[nH]c4ccccc34)cc2)[C@H](OC(C)=O)[C@@H](OC(C)=O)[C@H]1OC(C)=O [(113), (2R,3S,4S,5R,6S)-2-(Acetoxymethyl)-6-(((E)-3-(4-(((2-(2-methyl-1H-indol-3yl)ethyl)amino)methyl)phenyl)acrylamido)oxy)tetrahydro-2H-pyran-3,4,5-triyl Triacetate]",reduction

# Same assay, conditions: quantitative PCR, relative to Actb; doxorubicin 20 mg/kg, 2×20 mg/kg i.p.; FIG. 4D
row,Compound,Cdkn2a (p16INK4a) gene expression in liver
1,"CC(=O)OC[C@H]1O[C@@H](ONC(=O)/C=C/c2ccc(CNCCc3c(C)[nH]c4ccccc34)cc2)[C@H](OC(C)=O)[C@@H](OC(C)=O)[C@H]1OC(C)=O [(113), (2R,3S,4S,5R,6S)-2-(Acetoxymethyl)-6-(((E)-3-(4-(((2-(2-methyl-1H-indol-3yl)ethyl)amino)methyl)phenyl)acrylamido)oxy)tetrahydro-2H-pyran-3,4,5-triyl Triacetate]",significant reduction

# Same assay, conditions: quantitative PCR, relative to Actb; doxorubicin 20 mg/kg, 2×20 mg/kg i.p.; FIG. 4E
row,Compound,IL-6 gene expression in liver
1,"CC(=O)OC[C@H]1O[C@@H](ONC(=O)/C=C/c2ccc(CNCCc3c(C)[nH]c4ccccc34)cc2)[C@H](OC(C)=O)[C@@H](OC(C)=O)[C@H]1OC(C)=O [(113), (2R,3S,4S,5R,6S)-2-(Acetoxymethyl)-6-(((E)-3-(4-(((2-(2-methyl-1H-indol-3yl)ethyl)amino)methyl)phenyl)acrylamido)oxy)tetrahydro-2H-pyran-3,4,5-triyl Triacetate]",significant reduction

# Test system: Normal human fibroblasts (IMR90)
# Assay: Compound toxicity towards normal proliferative, senescent or quiescent fibroblasts (XTT cell viability assay)
# Type: cell-based
# Conditions: IC50 against normal, proliferating cells divided by IC50 versus senescent (doxorubicin-induced) cells, three days treatment
# Method: Normal human fibroblasts (IMR90) and patient-derived β-galactosidase (GLB1) or α-fucosidase (FUCA1) deficient cells were used to determine change in cell viability after exposure to compound. Cells were cultured with DMEM and 10% heat inactivated FBS under a controlled atmosphere of 5% carbon dioxide and 5% oxygen, […] and confirmed by the absence of senescence associated β-galactosidase (SA-β-Gal) staining and the capacity to re-enter the cell cycle. Senescence was induced by treatment with doxorubicin and confirmed by SA-β-Gal positive staining and the lack of DNA replication. Cells were treated with compound for three days. Cell viability was determined by mitochondrial dehydrogenase activity (XTT assay. Cayman Chemical) at ten concentrations of the tested compound. To generate dose-response curves, data was fitted to a four-parameter Hill function and the IC50 was determined at Y=0.5 viability. The senolytic index (S.I.) for each compound was determined by dividing the IC50 against normal, proliferating cells by the IC50 versus senescent cells. Senolytic index data is shown in Table 1 with compounds having S.I.<1 (−), S.I>1 (+), S.I.>5 (++) and S.I>10 (+++).
row,Compound,Senolytic Index (S.I.)
1,"CC(=O)OC[C@H]1O[C@@H](ONC(=O)/C=C/c2ccc(CNCCc3c(C)[nH]c4ccccc34)cc2)[C@H](OC(C)=O)[C@@H](OC(C)=O)[C@H]1OC(C)=O [(113), (2R,3S,4S,5R,6S)-2-(Acetoxymethyl)-6-(((E)-3-(4-(((2-(2-methyl-1H-indol-3yl)ethyl)amino)methyl)phenyl)acrylamido)oxy)tetrahydro-2H-pyran-3,4,5-triyl Triacetate]",+++ (S.I>10 (+++))
2,CC(C)c1cc(C(=O)N2Cc3ccc(CN4CCN(C)CC4)cc3C2)c(O[C@@H]2O[C@H](CO)[C@H](O)[C@H](O)[C@H]2O)cc1O [(47)],− (S.I.<1 (−))
3,"COc1ccc(-c2nc(N3CCOCC3)c3sc(CN(C)c4ncc(C(=O)NO[C@@H]5O[C@H](COC(C)=O)[C@H](OC(C)=O)[C@H](OC(C)=O)[C@H]5OC(C)=O)cn4)cc3n2)cn1 [(123), (2R,3S,4S,5R,6S)-2-(Acetoxymethyl)-6-((2-(((2-(6-methoxypyridin-3-yl)-4-morpholinothieno[3,2-d]pyrimidin-6-yl)methyl)(methyl)amino)pyrimidine-5-carboxamido)oxy)tetrahydro-2H-pyran-3,4,5-triyl Triacetate]",+ (S.I>1 (+))
4,"CCNC(=O)c1noc(-c2cc(C(C)C)c(O[C@@H]3O[C@H](CO)[C@H](O)[C@H](O)[C@H]3O)cc2O)c1-c1ccc(CN2CCOCC2)cc1 (single isomer, unassigned) [(48)]",+ (S.I>1 (+))
5,"CC(C)c1cc(-c2n[nH]c(=O)n2-c2ccc3c(ccn3C)c2)c(O[C@@H]2O[C@H](CO)[C@H](O)[C@H](O)[C@H]2O)cc1O (single isomer, unassigned) [(128)]",− (S.I.<1 (−))
6,"COc1ccc(-c2nc(N3CCOCC3)c3sc(CN(C)c4ncc(C(=O)NO[C@@H]5O[C@H](CO)[C@H](O)[C@H](O)[C@H]5O)cn4)cc3n2)cn1 [(124), 2-(((2-(6-Methoxypyridin-3-yl)-4-morpholinothieno[3,2-d]pyrimidin-6-yl)methyl)(methyl)amino)-N-(((2S,3R,4S,5R,6R)-3,4,5-trihydroxy-6-(hydroxymethyl)tetrahydro-2H-pyran-2-yl)oxy)pyrimidine-5-carboxamide]",− (S.I.<1 (−))
7,"Cc1[nH]c2ccccc2c1CCNCc1ccc(/C=C/C(=O)NO[C@@H]2O[C@@H](C)[C@@H](OC(=O)C(C)C)[C@@H](OC(=O)C(C)C)[C@@H]2OC(=O)C(C)C)cc1 [(122), (2S,3R,4R,5S,6S)-2-Methyl-6-(((E)-3-(4-(((2-(2-methyl-1H-indol-3-yl)ethyl)amino)methyl)phenyl)acrylamido)oxy)tetrahydro-2H-pyran-3,4,5-triyl tris(2-methylpropanoate)]",+ (S.I>1 (+))
8,"Cn1cc(CNCC2CCN(c3ncc(C(=O)NO[C@@H]4O[C@H](CO)[C@H](O)[C@H](O)[C@H]4O)cn3)CC2)c2ccccc21 [(112), 2-(4-((((1-methyl-1H-indol-3-yl)methyl)amino)methyl)piperidin-1-yl)-N-(((2S,3R,4S,5R,6R)-3,4,5-trihydroxy-6-(hydroxymethyl)tetrahydro-2H-pyran-2-yl)oxy)pyrimidine-5-carboxamide]",+ (S.I>1 (+))
9,"CC(C)c1cc(C(=O)N2Cc3ccc(CN4CCN(C)CC4)cc3C2)c(O)cc1O[C@@H]1O[C@H](CO)[C@H](O)[C@H](O)[C@H]1O (single isomer, unassigned) [(46)]",− (S.I.<1 (−))
10,"CCNC(=O)c1noc(-c2cc(C(C)C)c(O)cc2O[C@@H]2O[C@H](CO)[C@H](O)[C@H](O)[C@H]2O)c1-c1ccc(CN2CCOCC2)cc1 (single isomer, unassigned) [(49)]",+ (S.I>1 (+))
11,"CC(=O)O[C@H]1[C@H](OC(C)=O)[C@H](ONC(=O)c2cnc(N3CCC(CNCc4cn(C)c5ccccc45)CC3)nc2)O[C@@H](C)[C@H]1OC(C)=O [Compound (115), (2S,3R,4R,5S,6S)-2-Methyl-6-((2-(4-((((1-methyl-1H-indol-3-yl)methyl)amino)methyl)piperidin-1-yl)pyrimidine-5-carboxamido)oxy)tetrahydro-2H-pyran-3,4,5-triyl Triacetate]",+++ (S.I>10 (+++))
12,"Cc1[nH]c2ccccc2c1CCNCc1ccc(/C=C/C(=O)NO[C@@H]2O[C@H](CO)[C@H](O)[C@H](O)[C@H]2O)cc1 [(26), (E)-3-(4-(((2-(2-Methyl-1H-indol-3-yl)ethyl)amino)methyl)phenyl)-N-(((2S,3R,4S,5R,6R)-3,4,5-trihydroxy-6-(hydroxymethyl)tetrahydro-2H-pyran-2-yl)oxy)acrylamide]",++ (S.I.>5 (++))
13,"CCC(=O)O[C@H]1[C@H](OC(=O)CC)[C@H](ONC(=O)/C=C/c2ccc(CNCCc3c(C)[nH]c4ccccc34)cc2)O[C@@H](C)[C@H]1OC(=O)CC [(121), (2S,3R,4R,5S,6S)-2-Methyl-6-(((E)-3-(4-(((2-(2-methyl-1H-indol-3-yl)ethyl)amino)methyl)phenyl)acrylamido)oxy)tetrahydro-2H-pyran-3,4,5-triyl Tripropionate]",+++ (S.I>10 (+++))
14,"COc1ccc(-c2nc(N3CCOCC3)c3sc(CN(C)c4ncc(C(=O)NO[C@@H]5O[C@@H](C)[C@@H](OC(C)=O)[C@@H](OC(C)=O)[C@@H]5OC(C)=O)cn4)cc3n2)cn1 [(125), (2S,3S,4R,5R,6S)-2-((2-(((2-(6-Methoxypyridin-3-yl)-4-morpholinothieno[3,2-d]pyrimidin-6-yl)methyl)(methyl)amino)pyrimidine-5-carboxamido)oxy)-6-methyltetrahydro-2H-pyran-3,4,5-triyl Triacetate]",++ (S.I.>5 (++))
15,"COc1ccc(-c2nc(N3CCOCC3)c3sc(CN(C)c4ncc(C(=O)NO[C@@H]5O[C@@H](C)[C@@H](O)[C@@H](O)[C@@H]5O)cn4)cc3n2)cn1 [(126), 2-(((2-(6-methoxypyridin-3-yl)-4-morpholinothieno[3,2-d]pyrimidin-6-yl)methyl)(methyl)amino)-N-(((2S,3S,4R,5S,6S)-3,4,5-trihydroxy-6-methyltetrahydro-2H-pyran-2-yl)oxy)pyrimidine-5-carboxamide]",− (S.I.<1 (−))
16,"CC(=O)OC[C@H]1O[C@@H](ONC(=O)c2cnc(N3CCC(CNCc4cn(C)c5ccccc45)CC3)nc2)[C@H](OC(C)=O)[C@@H](OC(C)=O)[C@H]1OC(C)=O [(114), (2R,3S,4S,5R,6S)-2-(Acetoxymethyl)-6-((2-(4-((((1-methyl-1H-indol-3-yl)methyl)amino)methyl)piperidin-1-yl)pyrimidine-5-carboxamido)oxy)tetrahydro-2H-pyran-3,4,5-triyl Triacetate]",+ (S.I>1 (+))
17,"C[C@@H]1O[C@@H](ONC(=O)c2cnc(N3CCC(CNCc4cn(C)c5ccccc45)CC3)nc2)[C@@H](O)[C@H](O)[C@@H]1O [(120), 2-(4-((((l-Methyl-1H-indol-3-yl)methyl)amino)methyl)piperidin-1-yl)-N-(((2S,3S,4R,5S,6S)-3,4,5-trihydroxy-6-methyltetrahydro-2H-pyran-2-yl)oxy)pyrimidine-5-carboxamide]",+ (S.I>1 (+))
18,"Cc1[nH]c2ccccc2c1CCNCc1ccc(/C=C/C(=O)NO[C@@H]2O[C@@H](C)[C@@H](O)[C@@H](O)[C@@H]2O)cc1 [(35), (E)-3-(4-(((2-(2-Methyl-1H-indol-3-yl)ethyl)amino)methyl)phenyl)-N-(((2S,3S,4R,5S,6S)-3,4,5-trihydroxy-6-methyltetrahydro-2H-pyran-2-yl)oxy)acrylamide]",+ (S.I>1 (+))
19,"CC(C)c1cc(-c2n[nH]c(=O)n2-c2ccc3c(ccn3C)c2)c(O)cc1O[C@@H]1O[C@H](CO)[C@H](O)[C@H](O)[C@H]1O (single isomer, unassigned) [(127)]",+ (S.I>1 (+))
